US9771369B2, “Compounds and methods for kinase modulation, and indications therefor” (Plexxikon Inc., priority 2014, dated 2017)

Key:
[1] = test system: BaF3-FL KIT D816V or BaF3-FL KIT V560G/D816V cell line; experiment: Cell-based assays of c-Kit mutant kinase activity (cell proliferation, ATPlite); conditions: at least one of the c-kit cell assays of Example 7
Method in brief: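 BaF3 cells dependent on transfected full-length human KIT D816V or V560G/D816V (pCI-Neo, CMV promoter) were seeded at 1×10^4 cells/well and exposed to 8-point 1:3 dilutions from 10 μM top (0.2% DMSO) for three days at 37° C. ATPlite luminescence gave cell number; IC50 from concentration-response.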

c-kit mutant D816V = c-kit mutant D816V (Homo sapiens (Human), UniProt P10721, D816V/DEL694-753); experiment: c-Kit mutant D816V biochemical assay (AlphaScreen kinase activity)
c-kit mutant D816V, sequence (P10721 other isoform, or with tags, fused parts or gaps D816V/del 694-753): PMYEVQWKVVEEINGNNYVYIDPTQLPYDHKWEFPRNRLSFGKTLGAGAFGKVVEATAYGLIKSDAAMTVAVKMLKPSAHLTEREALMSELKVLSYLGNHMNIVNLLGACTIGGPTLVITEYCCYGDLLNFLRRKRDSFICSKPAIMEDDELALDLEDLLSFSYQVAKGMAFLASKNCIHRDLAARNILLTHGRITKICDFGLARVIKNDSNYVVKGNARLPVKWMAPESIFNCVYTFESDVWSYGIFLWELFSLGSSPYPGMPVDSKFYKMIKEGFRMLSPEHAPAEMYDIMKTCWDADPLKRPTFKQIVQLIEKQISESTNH
Method in brief: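 AlphaScreen with streptavidin donor and PY30 acceptor beads read phosphotyrosine on biotin-(E4Y)10 substrate (30 nM). Enzyme: E. coli-expressed N-His c-Kit D816V, residues 551-934 lacking kinase insert 694-753. Reaction 30 min at room temperature, 10 μM ATP, 5% DMSO; IC50 fitted over 8 three-fold dilutions.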

Compound | IC50 [1] [µM] | IC50 (c-kit mutant D816V) [µM]
COc1cc(-c2cc3c(N4CCC(c5nc(C)c(-c6cccc(OC(F)(F)F)c6)[nH]5)CC4)ncnc3[nH]2)ccn1 [P-3014, 6-(2-methoxy-4-pyridyl)-4-[4-[4-methyl-5-[3-(trifluoromethoxy)phenyl]-1H-imidazol-2-yl]-1-piperidyl]-7H-pyrrolo[2,3-d]pyrimidine] | < 10 | 0.0001 to 1
COc1ccc(-c2[nH]c(C3CCN(c4ncnc5[nH]c(-c6ccc(C#N)cc6)cc45)CC3)nc2C)cc1 [P-3015, 4-[4-[4-[5-(4-methoxyphenyl)-4-methyl-1H-imidazol-2-yl]-1-piperidyl]-7H-pyrrolo[2,3-d]pyrimidin-6-yl]benzonitrile] | < 10 | 0.0001 to 1
Cc1nc(C2CCN(c3ncnc4[nH]c(-c5ccc(C#N)cc5)cc34)CC2)[nH]c1-c1cccc(F)c1 [P-3016, 4-[4-[4-[5-(3-fluorophenyl)-4-methyl-1H-imidazol-2-yl]-1-piperidyl]-7H-pyrrolo[2,3-d]pyrimidin-6-yl]benzonitrile] | < 10 | 0.0001 to 1
COc1ccc(-c2[nH]c(C3CCN(c4ncnc5[nH]c(-c6ccnc(OC)c6)cc45)CC3)nc2C)cc1 [P-3017, 4-[4-[5-(4-methoxyphenyl)-4-methyl-1H-imidazol-2-yl]-1-piperidyl]-6-(2-methoxy-4-pyridyl)-7H-pyrrolo[2,3-d]pyrimidine] | < 10 | 0.0001 to 1
COc1ccc(-c2[nH]c(C3CCN(c4ncnc5[nH]c(-c6ccc(C#N)cc6)cc45)CC3)nc2C)cc1F [P-3018, 4-[4-[4-[5-(3-fluoro-4-methoxy-phenyl)-4-methyl-1H-imidazol-2-yl]-1-piperidyl]-7H-pyrrolo[2,3-d]pyrimidin-6-yl]benzonitrile] | < 10 | 0.0001 to 1
CCOc1ccc(-c2[nH]c(C3(C)CCN(c4ncnc5[nH]c(-c6ccc(OC)nc6)cc45)CC3)nc2C)cc1 [P-3171, 4-[4-[5-(4-ethoxyphenyl)-4-methyl-1H-imidazol-2-yl]-4-methyl-1-piperidyl]-6-(6-methoxy-3-pyridyl)-7H-pyrrolo[2,3-d]pyrimidine] | < 10 | 0.0001 to 1
COc1ccc(-c2[nH]c(C3(C)CCN(c4ncnc5[nH]c(-c6ccc(C#N)cc6)cc45)CC3)nc2C)cn1 [P-3172, 4-[4-[4-[5-(6-methoxy-3-pyridyl)-4-methyl-1H-imidazol-2-yl]-4-methyl-1-piperidyl]-7H-pyrrolo[2,3-d]pyrimidin-6-yl]benzonitrile] | < 10 | 0.0001 to 1
COc1ncc(-c2[nH]c(C3CCN(c4ncnc5[nH]c(-c6ccc(C#N)cc6)cc45)CC3)nc2C)cc1F [P-3173, 4-[4-[4-[5-(5-fluoro-6-methoxy-3-pyridyl)-4-methyl-1H-imidazol-2-yl]-1-piperidyl]-7H-pyrrolo[2,3-d]pyrimidin-6-yl]benzonitrile] | < 10 | 0.0001 to 1
Cc1nc(C2(C)CCN(c3ncnc4[nH]c(-c5cnn(C(F)F)c5)cc34)CC2)[nH]c1-c1ccc(Cl)cc1 [P-3175, 4-[4-[5-(4-chlorophenyl)-4-methyl-1H-imidazol-2-yl]-4-methyl-1-piperidyl]-6-[1-(difluoromethyl)pyrazol-4-yl]-7H-pyrrolo[2,3-d]pyrimidine] | < 10 | 0.0001 to 1
COc1ccc(-c2cc3c(N4CCC(C)(c5nc(C)c(-c6ccc(Cl)cc6)[nH]5)CC4)ncnc3[nH]2)cn1 [P-3176, 4-[4-[5-(4-chlorophenyl)-4-methyl-1H-imidazol-2-yl]-4-methyl-1-piperidyl]-6-(6-methoxy-3-pyridyl)-7H-pyrrolo[2,3-d]pyrimidine] | < 10 | 0.0001 to 1
Cc1nc(C2(C)CCN(c3ncnc4[nH]c(-c5ccc(C#N)cc5)cc34)CC2)[nH]c1-c1ccc(C(F)(F)F)cc1 [P-3177, 4-[4-[4-methyl-4-[4-methyl-5-[4-(trifluoromethyl)phenyl]-1H-imidazol-2-yl]-1-piperidyl]-7H-pyrrolo[2,3-d]pyrimidin-6-yl]benzonitrile] | < 10 | 0.0001 to 1
COc1ccc(-c2cc3c(N4CCC(C)(c5nc(C)c(-c6ccc(C(F)(F)F)cc6)[nH]5)CC4)ncnc3[nH]2)cn1 [P-3178, 6-(6-methoxy-3-pyridyl)-4-[4-methyl-4-[4-methyl-5-[4-(trifluoromethyl)phenyl]-1H-imidazol-2-yl]-1-piperidyl]-7H-pyrrolo[2,3-d]pyrimidine] | < 10 | 0.0001 to 1
Cc1nc(C2(C)CCN(c3ncnc4[nH]c(-c5cnn(C(F)F)c5)cc34)CC2)[nH]c1-c1ccc(C(F)(F)F)cc1 [P-3179, 6-[1-(difluoromethyl)pyrazol-4-yl]-4-[4-methyl-4-[4-methyl-5-[4-(trifluoromethyl)phenyl]-1H-imidazol-2-yl]-1-piperidyl]-7H-pyrrolo[2,3-d]pyrimidine] | < 10 | 0.0001 to 1
Cc1nc(C2(C)CCN(c3ncnc4[nH]c(-c5ccc(C#N)cc5)cc34)CC2)[nH]c1-c1ccc(Cl)cc1 [P-3180, 4-[4-[4-[5-(4-chlorophenyl)-4-methyl-1H-imidazol-2-yl]-4-methyl-1-piperidyl]-7H-pyrrolo[2,3-d]pyrimidin-6-yl]benzonitrile] | < 10 | 0.0001 to 1
COc1ncc(-c2[nH]c(C3(C)CCN(c4ncnc5[nH]c(-c6ccc(C#N)cc6)cc45)CC3)nc2C)cc1F [P-3181, 4-[4-[4-[5-(5-fluoro-6-methoxy-3-pyridyl)-4-methyl-1H-imidazol-2-yl]-4-methyl-1-piperidyl]-7H-pyrrolo[2,3-d]pyrimidin-6-yl]benzonitrile] | < 10 | 0.0001 to 1
COc1ccc(-c2[nH]c(C3(C)CCN(c4ncnc5[nH]c(-c6cnn(C(F)F)c6)cc45)CC3)nc2C)cn1 [P-3182, 6-[1-(difluoromethyl)pyrazol-4-yl]-4-[4-[5-(6-methoxy-3-pyridyl)-4-methyl-1H-imidazol-2-yl]-4-methyl-1-piperidyl]-7H-pyrrolo[2,3-d]pyrimidine] | < 10 | 0.0001 to 1
COc1ccc(-c2[nH]c(C3(C)CCN(c4ncnc5[nH]c(C)cc45)CC3)nc2C)cc1F [P-3183, 4-[4-[5-(3-fluoro-4-methoxy-phenyl)-4-methyl-1H-imidazol-2-yl]-4-methyl-1-piperidyl]-6-methyl-7H-pyrrolo[2,3-d]pyrimidine] | < 10 | 0.0001 to 1
Cc1cc2c(N3CCC(C)(c4nc(C)c(-c5ccc(C(F)F)cc5)[nH]4)CC3)ncnc2[nH]1 [P-3184, 4-[4-[5-[4-(difluoromethyl)phenyl]-4-methyl-1H-imidazol-2-yl]-4-methyl-1-piperidyl]-6-methyl-7H-pyrrolo[2,3-d]pyrimidine] | < 10 | 0.0001 to 1
COc1ncc(-c2nc(C3(C)CCN(c4ncnc5[nH]c(C)cc45)CC3)[nH]c2C)cc1F [P-3185, 4-[4-[4-(5-fluoro-6-methoxy-3-pyridyl)-5-methyl-1H-imidazol-2-yl]-4-methyl-1-piperidyl]-6-methyl-7H-pyrrolo[2,3-d]pyrimidine] | < 10 | 0.0001 to 1
COc1ccc(-c2nc(C3(C)CCN(c4ncnc5[nH]c(C)cc45)CC3)[nH]c2C)cn1 [P-3186, 4-[4-[4-(6-methoxy-3-pyridyl)-5-methyl-1H-imidazol-2-yl]-4-methyl-1-piperidyl]-6-methyl-7H-pyrrolo[2,3-d]pyrimidine] | < 10 | 0.0001 to 1
COc1ccc(-c2[nH]c(C3(C)CCN(c4ncnc5[nH]c(-c6cnn(C(F)F)c6)cc45)CC3)nc2C)cc1F [P-3187, 6-[1-(difluoromethyl)pyrazol-4-yl]-4-[4-[5-(3-fluoro-4-methoxy-phenyl)-4-methyl-1H-imidazol-2-yl]-4-methyl-1-piperidyl]-7H-pyrrolo[2,3-d]pyrimidine] | < 10 | 0.0001 to 1
COc1ccc(-c2cc3c(N4CCC(C)(c5nc(C)c(-c6ccc(OC)c(F)c6)[nH]5)CC4)ncnc3[nH]2)cn1 [P-3188, 4-[4-[5-(3-fluoro-4-methoxy-phenyl)-4-methyl-1H-imidazol-2-yl]-4-methyl-1-piperidyl]-6-(6-methoxy-3-pyridyl)-7H-pyrrolo[2,3-d]pyrimidine] | < 10 | 0.0001 to 1
Cc1nc(C2(C)CCN(c3ncnc4[nH]c(-c5cnn(C(F)F)c5)cc34)CC2)[nH]c1-c1ccc(C(F)F)cc1 [P-3189, 4-[4-[5-[4-(difluoromethyl)phenyl]-4-methyl-1H-imidazol-2-yl]-4-methyl-1-piperidyl]-6-[1-(difluoromethyl)pyrazol-4-yl]-7H-pyrrolo[2,3-d]pyrimidine] | < 10 | 0.0001 to 1
COc1ccc(-c2cc3c(N4CCC(C)(c5nc(C)c(-c6ccc(C(F)F)cc6)[nH]5)CC4)ncnc3[nH]2)cn1 [P-3190, 4-[4-[5-[4-(difluoromethyl)phenyl]-4-methyl-1H-imidazol-2-yl]-4-methyl-1-piperidyl]-6-(6-methoxy-3-pyridyl)-7H-pyrrolo[2,3-d]pyrimidine] | < 10 | 0.0001 to 1
Cc1cc2c(N3CCC(C)(c4nc(C)c(-c5cccc(OC(F)F)c5)[nH]4)CC3)ncnc2[nH]1 [P-3191, 4-[4-[5-[3-(difluoromethoxy)phenyl]-4-methyl-1H-imidazol-2-yl]-4-methyl-1-piperidyl]-6-methyl-7H-pyrrolo[2,3-d]pyrimidine] | < 10 | 0.0001 to 1
Cc1nc(C2(C)CCN(c3ncnc4[nH]c(-c5cnn(C(F)F)c5)cc34)CC2)[nH]c1-c1cccc(OC(F)F)c1 [P-3192, 4-[4-[5-[3-(difluoromethoxy)phenyl]-4-methyl-1H-imidazol-2-yl]-4-methyl-1-piperidyl]-6-[1-(difluoromethyl)pyrazol-4-yl]-7H-pyrrolo[2,3-d]pyrimidine] | < 10 | 0.0001 to 1
